In PubChem BioAssay AID256 (DTP/NCI, 2004):
“And” between values parts separate entries of the source, which are not always exact repeats. Equal values may be shown once. Toxic doses and inconclusive results are not listed. Rule for the calls: active = survival T/C of 150% or more; inactive = T/C below 125% in these data.

Test system: CD2F1 mice, L1210 leukemia ip, survival T/C
Assay: NCI In Vivo Anticancer Drug Screen. Data for tumor model L1210 Leukemia (intraperitoneal) in CD2F1 (CDF1) mice
Settings: higher = longer survival
Outline: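 Tumor-bearing mice (transplanted tumor) were split into treated and vehicle control groups, and the measured endpoint of each treated group was divided by that of its vehicle controls.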

[1] = endpoint: mean survival time, dose: 100.0 mg/kg/injection, schedule: Q01DX001 (ip), vehicle: saline with Tween-80
[2] = endpoint: mean survival time, dose: 200.0 mg/kg/injection, schedule: Q01DX001 (ip), vehicle: saline with Tween-80
[3] = endpoint: mean survival time, dose: 400.0 mg/kg/injection, schedule: Q01DX001 (ip), vehicle: saline with Tween-80
[4] = endpoint: mean survival time, dose: 100.0 mg/kg/injection, schedule: Q01DX009 (ip), vehicle: saline with Tween-80
[5] = endpoint: mean survival time, dose: 200.0 mg/kg/injection, schedule: Q01DX009 (ip), vehicle: saline with Tween-80
[6] = endpoint: mean survival time, dose: 400.0 mg/kg/injection, schedule: Q01DX009 (ip), vehicle: saline with Tween-80
[7] = endpoint: mean survival time, dose: 100.0 mg/kg/injection, schedule: Q04DX002 (ip), vehicle: saline with Tween-80
[8] = endpoint: mean survival time, dose: 200.0 mg/kg/injection, schedule: Q04DX002 (ip), vehicle: saline with Tween-80
[9] = endpoint: mean survival time, dose: 100.0 mg/kg/injection, schedule: Q04DX003 (ip), vehicle: saline with Tween-80
[10] = endpoint: mean survival time, dose: 200.0 mg/kg/injection, schedule: Q04DX003 (ip), vehicle: saline with Tween-80
[11] = endpoint: mean survival time, dose: 400.0 mg/kg/injection, schedule: Q04DX003 (ip), vehicle: saline with Tween-80
[12] = endpoint: mean survival time, dose: 100.0 mg/kg/injection, schedule: Q04DX003 (ip), vehicle: saline
[13] = endpoint: mean survival time, dose: 200.0 mg/kg/injection, schedule: Q04DX003 (ip), vehicle: saline
[14] = endpoint: mean survival time, dose: 400.0 mg/kg/injection, schedule: Q04DX003 (ip), vehicle: saline
[15] = endpoint: mean survival time, dose: 25.0 mg/kg/injection, schedule: Q01DX009 (ip), vehicle: saline with Tween-80
[16] = endpoint: mean survival time, dose: 50.0 mg/kg/injection, schedule: Q01DX009 (ip), vehicle: saline with Tween-80
[17] = endpoint: mean survival time, dose: 400.0 mg/kg/injection, schedule: Q04DX002 (ip), vehicle: saline with Tween-80

Measured: T/C

CC1(C)CC(NC(=O)CSc2ncnc3c2ncn3C2OC(CO)C(O)C2O)CC(C)(C)N1O (configuration not stated)
inactive: endpoint: mean survival time, dose: 12.5 mg/kg/injection, schedule: Q01DX005 (ip), vehicle: water 96 % of control | endpoint: mean survival time, dose: 25.0 mg/kg/injection, schedule: Q01DX005 (ip), vehicle: water 94 % of control | endpoint: mean survival time, dose: 50.0 mg/kg/injection, schedule: Q01DX005 (ip), vehicle: water 94 % of control | endpoint: mean survival time, dose: 100.0 mg/kg/injection, schedule: Q01DX005 (ip), vehicle: water 102 % of control | endpoint: mean survival time, dose: 200.0 mg/kg/injection, schedule: Q01DX005 (ip), vehicle: water 96 % of control

O=C(O)C1CCCCC1C(=O)O.[NH-]C1CCC1.[NH2-].[Pt+2] (configuration not stated)
inactive: endpoint: median survival time, dose: 3.12 mg/kg/injection, schedule: Q04DX003 (ip), vehicle: distilled water + Tween-80 107 % of control | endpoint: median survival time, dose: 6.25 mg/kg/injection, schedule: Q04DX003 (ip), vehicle: distilled water + Tween-80 102 % of control | endpoint: median survival time, dose: 12.5 mg/kg/injection, schedule: Q04DX003 (ip), vehicle: distilled water + Tween-80 106 % of control | endpoint: median survival time, dose: 25.0 mg/kg/injection, schedule: Q04DX003 (ip), vehicle: distilled water + Tween-80 102 % of control | endpoint: median survival time, dose: 50.0 mg/kg/injection, schedule: Q04DX003 (ip), vehicle: distilled water + Tween-80 103 % of control

O=C(Nc1cc(Cl)c(NC(=O)c2ccccc2)c(Cl)c1)c1ccccc1
inactive: [1] 96 % of control | [2] 89 % of control | [3] 86 % of control

Nc1ccc(S(=O)(=O)c2ccc(N)c(S(N)(=O)=O)c2)cc1
inactive: [4] 92 % of control | [5] 91 % of control | [6] 100 % of control

CC(=O)OCCN(CCOC(C)=O)CCOC(C)=O
inactive: endpoint: mean survival time, dose: 100.0 mg/kg/injection, schedule: Q04DX003 (ip), vehicle: Klucel (hydroxypropylcellulose) (HPC) 95 % of control

CC(C)C(NC(=O)c1cccnc1)C(=O)O (configuration not stated)
inactive: endpoint: mean survival time, dose: 50.0 mg/kg/injection, schedule: Q04DX002 (ip), vehicle: saline with Tween-80 100 % of control | [1] 108 % of control | [7] 100 % of control | [2] 108 % of control | [8] 104 % of control | [3] 97 % of control

C=C(C)C(=O)OCCN(C)C (tested in a mixture with another compound)
inactive: [4] 97 % of control | [9] 100 % of control | [5] 106 % of control | [10] 122 % of control | [11] 92 % of control

COc1nccnc1NS(=O)(=O)c1ccc(N)cc1
inactive: [12] 98 % of control | [13] 100 % of control | [14] 104 % of control

CC(C)(C)OOCC1CO1 (configuration not stated)
inactive: [4] 92 % of control | [9] 98 % of control | [5] 94 % of control | [10] 105 % of control | [6] 98 % of control | [11] 96 % of control

CCCCCCCCCCCCCC(CCCCCCCCCC)CCCCCCCCCC
inactive: [1] 98 % of control | [2] 103 % of control | [3] 104 % of control

OC1(C2(O)CCCC2)CCCC1
inactive: [4] 105 % of control | [5] 111 % of control | [6] 103 % of control

CN(C)C(=N)N(C)C
inactive: [15] 98 % of control | [16] 95 % of control | [4] 87 % of control | endpoint: mean survival time, dose: 100.0 mg/kg/injection, schedule: Q04DX003 (ip), vehicle: saline sonified 101 % of control

N#Cc1nc(/C=C\c2ccc3c(c2)OCO3)cnc1N
inactive: endpoint: mean survival time, dose: 100.0 mg/kg/injection, schedule: Q01DX001 (ip), vehicle: Klucel (hydroxypropylcellulose) (HPC) 90 % of control | endpoint: mean survival time, dose: 200.0 mg/kg/injection, schedule: Q01DX001 (ip), vehicle: Klucel (hydroxypropylcellulose) (HPC) 90 % of control | endpoint: mean survival time, dose: 400.0 mg/kg/injection, schedule: Q01DX001 (ip), vehicle: Klucel (hydroxypropylcellulose) (HPC) 90 % of control

COc1cc(-c2ccc(N)c(OC)c2)ccc1N
inactive: [1] 100 % of control | endpoint: mean survival time, dose: 100.0 mg/kg/injection, schedule: Q01DX009 (ip), vehicle: saline 96 % of control and 100 % of control | [7] 102 % of control | [12] 97 % of control | [2] 96 % of control | endpoint: mean survival time, dose: 200.0 mg/kg/injection, schedule: Q01DX009 (ip), vehicle: saline 100 % of control and 102 % of control | [8] 100 % of control | [13] 94 % of control | [3] 103 % of control | [17] 100 % of control | [14] 103 % of control

CN(C)CCCNC(=O)c1ccc(N)cc1
inactive: endpoint: mean survival time, dose: 100.0 mg/kg/injection, schedule: Q04DX002 (ip), vehicle: saline 102 % of control | endpoint: mean survival time, dose: 200.0 mg/kg/injection, schedule: Q04DX002 (ip), vehicle: saline 105 % of control | endpoint: mean survival time, dose: 400.0 mg/kg/injection, schedule: Q04DX002 (ip), vehicle: saline 97 % of control

Cc1cc(C)c(NC(=O)CC#N)c(C)c1
inactive: [15] 88 % of control | [16] 86 % of control | [4] 93 % of control

Cn1c(=O)c2c(n(C)c1=O)n1cnnc1n2C
inactive: endpoint: mean survival time, dose: 12.5 mg/kg/injection, schedule: Q01DX005 (ip), vehicle: distilled water + Tween-80 95 % of control | endpoint: mean survival time, dose: 25.0 mg/kg/injection, schedule: Q01DX005 (ip), vehicle: distilled water + Tween-80 100 % of control | endpoint: mean survival time, dose: 50.0 mg/kg/injection, schedule: Q01DX005 (ip), vehicle: distilled water + Tween-80 100 % of control | endpoint: mean survival time, dose: 100.0 mg/kg/injection, schedule: Q01DX005 (ip), vehicle: distilled water + Tween-80 100 % of control | endpoint: mean survival time, dose: 200.0 mg/kg/injection, schedule: Q01DX005 (ip), vehicle: distilled water + Tween-80 89 % of control

BrC[P+](CBr)(CBr)CBr
inactive: endpoint: median survival time, dose: 25.0 mg/kg/injection, schedule: Q01DX009 (ip), vehicle: saline with Tween-80 98 % of control | endpoint: median survival time, dose: 50.0 mg/kg/injection, schedule: Q01DX009 (ip), vehicle: saline with Tween-80 102 % of control | endpoint: median survival time, dose: 100.0 mg/kg/injection, schedule: Q01DX009 (ip), vehicle: saline with Tween-80 102 % of control | endpoint: median survival time, dose: 200.0 mg/kg/injection, schedule: Q01DX009 (ip), vehicle: saline with Tween-80 109 % of control | endpoint: median survival time, dose: 400.0 mg/kg/injection, schedule: Q01DX009 (ip), vehicle: saline with Tween-80 96 % of control

CCN(CC)CCNC1CCCCC1
inactive: [15] 96 % of control | endpoint: mean survival time, dose: 25.0 mg/kg/injection, schedule: Q04DX003 (ip), vehicle: saline 97 % of control | [16] 96 % of control | endpoint: mean survival time, dose: 50.0 mg/kg/injection, schedule: Q04DX003 (ip), vehicle: saline 100 % of control | [4] 96 % of control | [12] 94 % of control

COc1ccc2ccccc2c1C1NC(=O)c2ccccc2N1 (configuration not stated)
inactive: endpoint: mean survival time, dose: 12.5 mg/kg/injection, schedule: Q01DX009 (ip), vehicle: Klucel (hydroxypropylcellulose) (HPC) 95 % of control and 102 % of control | endpoint: mean survival time, dose: 25.0 mg/kg/injection, schedule: Q01DX009 (ip), vehicle: Klucel (hydroxypropylcellulose) (HPC) 101 % of control and 102 % of control | endpoint: mean survival time, dose: 50.0 mg/kg/injection, schedule: Q01DX009 (ip), vehicle: Klucel (hydroxypropylcellulose) (HPC) 105 % of control and 107 % of control | endpoint: mean survival time, dose: 100.0 mg/kg/injection, schedule: Q01DX009 (ip), vehicle: Klucel (hydroxypropylcellulose) (HPC) 101 % of control and 104 % of control | endpoint: mean survival time, dose: 200.0 mg/kg/injection, schedule: Q01DX009 (ip), vehicle: Klucel (hydroxypropylcellulose) (HPC) 104 % of control and 105 % of control | endpoint: mean survival time, dose: 400.0 mg/kg/injection, schedule: Q01DX009 (ip), vehicle: Klucel (hydroxypropylcellulose) (HPC) 119 % of control and 96 % of control

O=S(=O)(O)/[N+]([O-])=N/O
inactive: endpoint: mean survival time, dose: 100.0 mg/kg/injection, schedule: Q01DX009 (ip), vehicle: saline sonified 103 % of control | endpoint: mean survival time, dose: 200.0 mg/kg/injection, schedule: Q01DX009 (ip), vehicle: saline sonified 95 % of control | endpoint: mean survival time, dose: 400.0 mg/kg/injection, schedule: Q01DX009 (ip), vehicle: saline sonified 101 % of control

Cc1cccnc1N.[Cl-].[Cl-].[Cl-].[Cl-].[Pt+2]
inactive: endpoint: mean survival time, dose: 21.88 mg/kg/injection, schedule: Q04DX003 (ip), vehicle: saline with Tween-80 104 % of control | endpoint: mean survival time, dose: 43.75 mg/kg/injection, schedule: Q04DX003 (ip), vehicle: saline with Tween-80 110 % of control

CCCCCCCCCCCCCCCCOCCOCCOCCOCCOCCCCCCCCCCCCCCCC
inactive: [7] 94 % of control | [8] 94 % of control | [17] 98 % of control
